What was measured:
Experiment in all cases: Mouse protection test: i.p. infection, s.c. treatment with the antibiotic alone or combined with muramyl peptide, survivors counted
Type in all cases: in vivo, weisse Laboratoriums-Mäuse
[1] = tested on: Klebsiella pneumoniae; details: mice infected i.p. with 2 x 10^4 cfu Klebsiella pneumoniae; Cefroxadin s.c. immediately and 3 h after infection, combined with 10 mg/kg N-Acetyl-muramyl-L-alanyl-D-isoglutaminyl-L-alanyl-2-(1',2'-dipalmitoyl-sn-glycero-3'-hydroxyphosphoryloxy)-äthylamid, compared with Cefroxadin alone; survivors counted after 4 or 10 days
Source text: (§1) Die hohe antibiotische Wirkung der neuen Präparate und des neuen Verfahrens kann durch "in vivo"-Versuche nachgewiesen werden, die an verschiedenen Tierarten, insbesondere an Säugetieren, wie Mäusen, durchgeführt werden. Dazu infiziert man sie mit einer letalen oder subletalen Dosis eines pathogenen Mikroorganismus und gibt dann das genannte neue Präparat bzw. die einzelnen Dosen an Muramylpeptid und Antibiotikum. Die Wirkung wird als ED50 bestimmt, das ist diejenige Dosis, bei der 50% der Tiere überleben.
(§2) Beispiel 4: Man infiziert weisse Laboratoriums-Mäuse auf i.p. Wege mit 2 x 10^4 cfu (colony forming units) Klebsiella pneumoniae, 0,1 x 10^4 cfu Pasteurella multocida oder 40 x 10^4 cfu Salmonella typhimurium in Salzlösung, so dass 90-100Z der nicht behandelten Kontrolltiere innerhalb von 48 Stunden getötet werden. Unmittelbar, sowie 3 Stunden nach der Infektion werden Gruppen zu je 10 Mäusen mit Cefroxadin, sowohl allein (ohne Muramylpeptid) als auch in Kombination mit 10 mg/kg N-Acetyl-muramyl-L-alanyl-D-isoglutaminyl-L-alanyl-2-(1',2'-dipalmitoyl-sn-glycero-3'-hydroxyphosphoryloxy)-äthylamid behandelt, wobei dieselben zweimal in Form wässriger Lösungen oder Suspensionen auf subkutanem Weg verabreicht werden. Nach 4 bzw. 10 Tagen nach erfolgter Infektion wurden die überlebenden Tiere gezählt.

[2] = tested on: Pasteurella multocida; details: mice infected i.p. with 0,1 x 10^4 cfu Pasteurella multocida; Cefroxadin s.c. immediately and 3 h after infection, combined with 10 mg/kg N-Acetyl-muramyl-L-alanyl-D-isoglutaminyl-L-alanyl-2-(1',2'-dipalmitoyl-sn-glycero-3'-hydroxyphosphoryloxy)-äthylamid, compared with Cefroxadin alone; survivors counted after 4 or 10 days
Source text: as §1, §2

[3] = tested on: Salmonella typhimurium; details: mice infected i.p. with 40 x 10^4 cfu Salmonella typhimurium; Cefroxadin s.c. immediately and 3 h after infection, combined with 10 mg/kg N-Acetyl-muramyl-L-alanyl-D-isoglutaminyl-L-alanyl-2-(1',2'-dipalmitoyl-sn-glycero-3'-hydroxyphosphoryloxy)-äthylamid, compared with Cefroxadin alone; survivors counted after 4 or 10 days
Source text: as §1, §2

Measured: ED50-Werte für das Antibiotikum bei kombinierter Gabe mit dem Muramylpeptid

COC1=C(C(=O)O)N2C(=O)[C@@H](NC(=O)[C@H](N)C3=CCC=CC3)[C@H]2SC1 [Cefroxadin, 7ß-[D-2-amino-2-(1,4-cyclohexadienyl)-acetamido]-3-methoxy-3-cephem-4-carbonsäure]
um ein Mehrfaches niedriger: all assays above

— EP0056560A1, “Active antibiotic compositions, process for their manufacture and process for the antibiotic activity of antibiotics” (CIBA-GEIGY AG, priority 1981, dated 1982)
